Source: patent publication US20130287890A1, “INHIBITOR OF THE PRODUCTION OF ADVANCED GLYCATION END PRODUCTS” (UENO FINE CHEMICALS INDUSTRY, LTD., priority 2012, published 2013)

Assays:
fluorescent AGEs = test: Quantitative determination of fluorescent AGEs after reaction at 37° C. for 42 days; assay type: biochemical; settings: for Fluorescent AGEs: 37° C., 42 days
Experimental: After 0.4 g of a high molecular weight fraction and 8 mL of 6N hydrochloric acid were charged in an ampule and the air in the ampule was replaced with nitrogen, hydrolysis was performed at 110° C. for 16 hours in a heat block. After reaction, 8 mL of 5N sodium hydroxide was added, and pH was adjusted using 1N hydrochloric acid and 1N sodium hydroxide to make pH within a range of 7.2 to 7.6. Then, the solution was filtered through a 0.45 μm filter. Using the thus obtained filtrate as a sample, fluorescent AGEs were quantitatively determined using the following methods. After weighing 2.5 mg of a standard substance perylene, the standard substance perylene was fully dissolved in 10 mL of deaerated ethanol added thereto to prepare a perylene solution. The perylene solution diluted to the concentration of 10 μM was exposed to excitation light with a wavelength of 386 nm and then the area was calculated by measuring a fluorescence intensity ranging from 410 to 600 nm. Meanwhile, the sample was exposed to excitation light with a wavelength of 380 nm and then the area was calculated by measuring a fluorescence intensity ranging from 400 to 600 nm. By considering the area measurement value of the sample as a value relative to the area value of the 10 μM perylene solution, fluorescent AGEs were determined.
(§1) Amino acid or biological protein, carbohydrates and a phosphate buffer solution were charged in a 50 mL polypropylene centrifuge tube in each amount shown in Table 8, followed by sealing and stirring, and then the mixture was reacted in an incubator at 37° C. for 42 days. Next, the reactant was fractionated by centrifugation at 3,000 rpm for 3 hours using an ultrafiltration unit (VIVA SPIN 20, manufactured by Sartorius Corporation). The obtained low molecular weight fraction was used as a sample for determination of 3-DG, while the obtained high molecular weight fraction was used as a sample for the determination of fluorescent AGEs. Amino acid, biological protein and carbohydrates used are as follows:
In the same manner as in Test Example 1, except that the low molecular weight fraction prepared as mentioned above was used as a sample, quantitative determination of 3-DG was performed. In the same manner as in Test Example 2, except that the high molecular weight fraction prepared as mentioned above was used as a sample, determination of fluorescent AGEs was performed.
(§2) Amino acid, carbohydrates and a phosphate buffer solution were charged in a 50 mL polypropylene centrifuge tube in each amount shown in Table 10, followed by sealing and stirring, and then the mixture was reacted in an incubator at 37° C. for 42 days. Next, the reactant was filtered through a 0.2 μm filter and the obtained filtrate was used as a sample. Amino acid and carbohydrates used are as follows:
After weighing 2.5 mg of a standard substance perylene, the standard substance perylene was fully dissolved in 50 mL of deaerated ethanol added thereto to prepare a perylene solution. The perylene solution diluted to the concentration of 10 μM was exposed to excitation light with a wavelength of 386 nm and then the area was calculated by measuring a fluorescence intensity ranging from 410 to 600 nm. Meanwhile, the sample was exposed to excitation light with a wavelength of 380 nm and then the area was calculated by measuring a fluorescence intensity ranging from 400 to 600 nm. By considering the area measurement value of the sample as a value relative to the area value of the 10 μM perylene solution, fluorescent AGEs were quantitatively determined.
Biological proteins, carbohydrates and a phosphate buffer solution are charged in a 50 mL polypropylene centrifuge tube in each amount shown in Table 12, followed by sealing and stirring, and then the mixture was reacted in an incubator at 37° C. for 42 days. Next, the reactant was fractionated by centrifugation at 3,000 rpm for 3 hours using an ultrafiltration unit (VIVA SPIN 20, manufactured by Sartorius Corporation). […]

pentosidine = test: Quantitative determination of pentosidine after reaction at 37° C. for 42 days; assay type: biochemical; settings: for Pentosidine: 37° C., 42 days
Experimental: as §2
Using a pentosidine measurement kit “FSK Pentosidine (registered trademark)” (manufactured by Fushimi Pharmaceutical Co., Ltd.), quantitative determination of pentosidine was performed in the following manner. Thirty (30) or more minutes before use, reagents and pentosidine solid-phase plates were put to room temperature. After dilution of the sample, a 50 μL aliquot of the sample was dispensed to a pentosidine solid-phase plate attached to the kit, and 50 μL of a first antibody solution was dispensed into wells other than the wells for measurement of reagent blank value. After the sample and the antibody solution were mixed by shaking the plate at 300 rpm for 1 minute, the solution was reacted at 37° C. for 1 hour. Next, the reaction solution was discarded, and 200 μL of rinsing fluid was dispensed to wash the plate. The washing was performed for 3 times. After liquid on the plate was removed, 100 μl of a second antibody solution was dispensed into wells other than the wells for measurement of reagent blank value. After the solution was mixed by shaking the plate at 300 rpm for 1 minute, the solution was reacted at 25° C. for 1 hour. Then, the reaction solution was discarded, and the plate was washed for 3 times with 200 μL of rinsing fluid again. Liquid on the plate was removed, and 100 μL of a color coupler was dispensed and left to stand for 10 minutes under a light shielding condition. Finally, 100 μL of a reaction stop solution was dispensed, and within 10 minutes after the dispensing, measurement was performed at main wavelength 450 nm/reference wavelength 630 nm using a micro-plate reader. The concentration of pentosidine was determined using the calibration curve of a pentosidine standard solution, based on measurement values of the sample.
as §1, with “Biological proteins,” for “Amino acid or biological protein,”, “are” for “were”, “12,” for “8,”, “AGEs, pentosidine, CML, RAGE agonist activity and RAGE antagonist activity. Biological proteins” for “AGEs. Amino acid, biological protein”
In the same manner as in Test Example 4, except that the low molecular weight fraction prepared as mentioned above was used as a sample, quantitative determination of 3-DG was performed. In the same manner as in Test Example 4, except that the high molecular weight fraction was filtered through a 0.2 μm filter and the filtrate was used as a sample, fluorescent AGEs, pentosidine, CML, RAGE agonist activity and RAGE antagonist activity were evaluated.
as §1, with “Collagen,” for “Amino acid or biological protein,”, “14,” for “8,”, “3-DG. […]” for “3-DG, while the obtained high molecular weight fraction was used as a sample for the determination of fluorescent AGEs. Amino acid, biological protein and carbohydrates used are as follows:”

[1] = Test Example 4, amino acid 0.4 g + carbohydrate 1.8 g
[2] = Test Example 5, bovine serum albumin 0.4 g + carbohydrate 1.8 g
[3] = Test Example 5, human serum albumin 0.4 g + carbohydrate 1.8 g
[4] = Test Example 5, γ-globulin 0.4 g + carbohydrate 1.8 g
[5] = Test Example 6, collagen 0.015 g + carbohydrate 1.8 g, hydrolysed high molecular weight fraction
[6] = Test Example 3, amino acid (lysine:arginine 1:1) 0.4 g + glucose 1.8 g or maltitol 3.4 g
[7] = Test Example 3, bovine serum albumin 0.4 g + glucose 1.8 g or maltitol 3.4 g
[8] = Test Example 4, amino acid, compared with sections containing glucose and fructose
[9] = Test Example 5, bovine serum albumin, human serum albumin, γ-globulin, compared with sections containing fructose
[10] = Test Example 5, bovine serum albumin, human serum albumin, γ-globulin, compared with sections containing glucose
[11] = Test Example 6, collagen, compared with sections containing glucose and fructose

| Compound | Fluorescent AGEs (fluorescent AGEs; [1]) | Fluorescent AGEs (fluorescent AGEs; [2]) | Fluorescent AGEs (fluorescent AGEs; [3]) | Fluorescent AGEs (fluorescent AGEs; [4]) | Fluorescent AGEs (fluorescent AGEs; [5]) | Pentosidine (pentosidine; [1]) | Pentosidine (pentosidine; [2]) | Pentosidine (pentosidine; [3]) | Pentosidine (pentosidine; [4]) | Pentosidine (pentosidine; [5]) | Fluorescent AGEs (fluorescent AGEs; [6]) | Fluorescent AGEs (fluorescent AGEs; [7]) | also measured |
| --- | --- | --- | --- | --- | --- | --- | --- | --- | --- | --- | --- | --- | --- |
| O=C(CO)[C@@H](O)[C@H](O)[C@H](O)CO [Fructose] | 11.4 nmol/1 mL of reaction solution | 28 nmol/1 mL of reaction solution | 25.2 nmol/1 mL of reaction solution | 17.3 nmol/1 mL of reaction solution | 2.4 nmol/1 mL of reaction solution | 24.7 nmol/1 mL of reaction solution | 0.03 nmol/1 mL of reaction solution | 0.05 nmol/1 mL of reaction solution | 0.005 nmol/1 mL of reaction solution | 0.15 nmol/1 mL of reaction solution | – | – | – |
| O=C[C@H](O)[C@@H](O)[C@H](O)[C@H](O)CO [Glucose] | 17.4 nmol/1 mL of reaction solution | 11 nmol/1 mL of reaction solution | 8.6 nmol/1 mL of reaction solution | 3.0 nmol/1 mL of reaction solution | 1.4 nmol/1 mL of reaction solution | 5.8 nmol/1 mL of reaction solution | 0.01 nmol/1 mL of reaction solution | 0.02 nmol/1 mL of reaction solution | 0.002 nmol/1 mL of reaction solution | 0.06 nmol/1 mL of reaction solution | 91 nmol/1 g of protein | 46 nmol/1 g of protein | – |
| OC[C@@H](O)[C@@H](O[C@H]1O[C@H](CO)[C@@H](O)[C@H](O)[C@H]1O)[C@H](O)[C@@H](O)CO [Maltitol] | – | – | – | – | – | – | – | – | – | – | 2 nmol/1 g of protein | 7 nmol/1 g of protein | production of AGEs (fluorescent AGEs; Test Example 3, amino acids and bovine serum albumin, compared with sections containing glucose): decreased |
| OC[C@@H](O)[C@@H](O)[C@H](O)[C@@H](O)CO [Sorbitol] | 0.4 nmol/1 mL of reaction solution | 2.0 nmol/1 mL of reaction solution | 5.4 nmol/1 mL of reaction solution | 1.3 nmol/1 mL of reaction solution | 0.5 nmol/1 mL of reaction solution | 0.8 nmol/1 mL of reaction solution | 0.03 nmol/1 mL of reaction solution | 0.02 nmol/1 mL of reaction solution | 0.002 nmol/1 mL of reaction solution | 0.05 nmol/1 mL of reaction solution | – | – | production of fluorescent AGEs (fluorescent AGEs; [8]): decreased; production of fluorescent AGEs (fluorescent AGEs; [9]): decreased; production of fluorescent AGEs (fluorescent AGEs; [10]): decreased; production of fluorescent AGEs (fluorescent AGEs; [11]): decreased; production of pentosidine (pentosidine; [8]): decreased; production of pentosidine (pentosidine; [9]): decreased; production of pentosidine (pentosidine; [10]): decreased; production of pentosidine (pentosidine; [11]): decreased |
